Among the test systems are T-47D breast; 786-0 renal; OVCAR-5 ovarian; HL-60(TB) leukemia; LOX IMVI melanoma; HOP-62 NSCLC; NCI/ADR-RES ovarian; SW-620 colon; MOLT-4 leukemia; SF-539 CNS; BT-549 breast; HOP-92 NSCLC; OVCAR-8 ovarian; SK-MEL-2 melanoma; OVCAR-3 ovarian; IGROV1 ovarian; SK-MEL-28 melanoma; K-562 leukemia; MALME-3M melanoma; NCI-H226 lung.
Assay in all cases: DTP human tumour cell line panel, 48 h

Structures are written as SMILES.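 Cultured in 96-well plates, cells were exposed to test compound for 48 hours across five concentrations. TGI: total growth inhibition.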

On to `O=[N+]([O-])c1ccc2sc(/C=N/c3ccccn3)cc2c1`, for which the TGI is 74 µM with T-47D breast; above 100 µM with 786-0 renal; above 100 µM in the experiment with OVCAR-5 ovarian; above 100 µM in the experiment with HL-60(TB) leukemia; above 100 µM in the experiment with LOX IMVI melanoma; above 100 µM with HOP-62 NSCLC. Further, the TGI with NCI/ADR-RES ovarian was above 100 µM; in the experiment on SW-620 colon it was above 100 µM; with MOLT-4 leukemia it was 53.5 µM; in the experiment on SF-539 CNS, above 100 µM; with BT-549 breast it was above 100 µM; in the experiment on HOP-92 NSCLC it was above 100 µM. Also, the total growth inhibition concentration (TGI) is above 100 µM in the experiment on OVCAR-8 ovarian; above 100 µM in the experiment with SK-MEL-2 melanoma; above 100 µM with OVCAR-3 ovarian; above 100 µM in the experiment on IGROV1 ovarian; above 100 µM in the experiment on SK-MEL-28 melanoma; 96.6 µM in the experiment with K-562 leukemia. Also, in the experiment on MALME-3M melanoma, the TGI was above 100 µM.

On to `CO[C@@]12C[C@@H](C)[C@]34O[C@H]3C[C@]3(C)O[C@]43CC1=C(C)C(=O)O2`, for which the TGI in the experiment with T-47D breast, with 786-0 renal, with OVCAR-5 ovarian, with LOX IMVI melanoma, in the experiment on NCI/ADR-RES ovarian and in the experiment with SW-620 colon was above 100 µM in each case. The TGI with SF-539 CNS, with BT-549 breast, with HOP-92 NSCLC, in the experiment on OVCAR-8 ovarian, in the experiment with SK-MEL-2 melanoma and in the experiment with OVCAR-3 ovarian was above 100 µM throughout. In addition, the TGI with IGROV1 ovarian, in the experiment with SK-MEL-28 melanoma, in the experiment on NCI-H226 lung, with K-562 leukemia and in the experiment on MALME-3M melanoma was above 100 µM in each case.

Regarding `Nc1cc2ncnn2c(SCC(=O)N/N=C/C(Br)=C\c2ccccc2)n1`, the TGI with T-47D breast worked out at 9.35 µM; in the experiment on 786-0 renal, 36.9 µM; in the experiment with OVCAR-5 ovarian it was 55.2 µM; in the experiment on HL-60(TB) leukemia, 62.4 µM; in the experiment with LOX IMVI melanoma, 45.6 µM; in the experiment on HOP-62 NSCLC, 87.2 µM. Further, the TGI in the experiment on NCI/ADR-RES ovarian amounted to 91.8 µM; with SW-620 colon it was 30.5 µM; in the experiment on MOLT-4 leukemia it was 71.7 µM; in the experiment on SF-539 CNS it was 39.2 µM; with BT-549 breast, 44.1 µM; in the experiment on OVCAR-8 ovarian, 52.3 µM. In addition, the TGI with OVCAR-3 ovarian is 40.5 µM; in the experiment on IGROV1 ovarian, 24.6 µM; in the experiment on SK-MEL-28 melanoma, 37.6 µM; in the experiment on NCI-H226 lung, 68.6 µM; in the experiment on K-562 leukemia, above 100 µM; with MALME-3M melanoma, 28.3 µM.

Turning to `O=C1c2ccccc2C(=O)c2c(NC(=O)C3CC3)ccc(NC(=O)C3CC3)c21`, the TGI with T-47D breast, in the experiment with 786-0 renal, in the experiment on OVCAR-5 ovarian, in the experiment on HL-60(TB) leukemia, with LOX IMVI melanoma and in the experiment on HOP-62 NSCLC was above 100 µM throughout. Besides, the TGI in the experiment with NCI/ADR-RES ovarian, in the experiment on SW-620 colon, in the experiment with MOLT-4 leukemia, in the experiment on SF-539 CNS, in the experiment on BT-549 breast and with OVCAR-8 ovarian was above 100 µM throughout. Also, the TGI with SK-MEL-2 melanoma, in the experiment on OVCAR-3 ovarian, in the experiment on IGROV1 ovarian, with SK-MEL-28 melanoma, with K-562 leukemia and with MALME-3M melanoma was above 100 µM in each case.

Regarding `COC(=O)c1c(C)c2c(c(C)c1C(=O)OC)-c1c(C)ccc3ccc(C)c-2c13`, the TGI in the experiment on T-47D breast is above 95.7 µM; with 786-0 renal it was above 100 µM; in the experiment with OVCAR-5 ovarian, above 100 µM; with HL-60(TB) leukemia, above 50.7 µM; in the experiment on LOX IMVI melanoma it was above 86.5 µM; in the experiment with HOP-62 NSCLC, above 100 µM. Further, the TGI in the experiment on NCI/ADR-RES ovarian was above 100 µM; with SW-620 colon, above 94.5 µM; in the experiment on MOLT-4 leukemia, above 100 µM; in the experiment with SF-539 CNS, above 100 µM; with BT-549 breast, above 100 µM; with OVCAR-8 ovarian, above 100 µM. Moreover, the TGI in the experiment on SK-MEL-2 melanoma, in the experiment with OVCAR-3 ovarian, in the experiment on IGROV1 ovarian, with SK-MEL-28 melanoma, in the experiment on NCI-H226 lung and in the experiment with K-562 leukemia was above 100 µM each time. Moreover, the TGI with MALME-3M melanoma is above 100 µM.

`C[P+](c1ccccc1)(c1ccc(Cl)cc1)c1ccc(Cl)cc1`: the TGI in the experiment on T-47D breast was 49.3 µM; in the experiment on 786-0 renal it was above 100 µM; in the experiment on OVCAR-5 ovarian it was 71.5 µM; in the experiment with LOX IMVI melanoma it was 32.5 µM; in the experiment with HOP-62 NSCLC, 70.4 µM; in the experiment on NCI/ADR-RES ovarian, above 100 µM. The TGI in the experiment on SW-620 colon is above 100 µM; in the experiment with SF-539 CNS it was 65.4 µM; in the experiment with BT-549 breast it was 68.3 µM; with HOP-92 NSCLC, 40.3 µM; in the experiment on OVCAR-8 ovarian, 36.6 µM; in the experiment on SK-MEL-2 melanoma it was 46.3 µM. Moreover, the TGI turned out to be 10.5 µM in the experiment with OVCAR-3 ovarian; 21.8 µM with IGROV1 ovarian; 29 µM with SK-MEL-28 melanoma; 88.6 µM with NCI-H226 lung; 74.4 µM with K-562 leukemia; 19.6 µM with MALME-3M melanoma.

On to `CCOC(=O)C1C(c2ccc(OC)cc2)c2c([nH][nH]c2=O)CC1(C)O` (configuration not stated), for which the TGI with T-47D breast, in the experiment with 786-0 renal, in the experiment with OVCAR-5 ovarian, in the experiment with HL-60(TB) leukemia, in the experiment with LOX IMVI melanoma and with HOP-62 NSCLC was above 100 µM in each case. For the same compound, the TGI in the experiment on NCI/ADR-RES ovarian, with SW-620 colon, in the experiment with MOLT-4 leukemia, in the experiment with SF-539 CNS, with BT-549 breast and in the experiment on HOP-92 NSCLC was above 100 µM throughout. Moreover, the TGI in the experiment on OVCAR-8 ovarian, in the experiment with SK-MEL-2 melanoma, in the experiment with OVCAR-3 ovarian, in the experiment with IGROV1 ovarian, in the experiment on SK-MEL-28 melanoma and in the experiment with MALME-3M melanoma was above 100 µM throughout.

One may read the TGI as the concentration at which net growth stops.

(Values after PubChem BioAssay (NCI).)
